Measured values: ChEMBL document CHEMBL1240307, “A functional genomics approach to the mode of action of apratoxin A” (Nat Chem Biol, 2006)

How the values were obtained:
Type in all cases: functional
K562 = assay: Cytotoxicity against human K562 cells by sulforhodamine B assay
A549 = assay: Cytotoxicity against human A549 cells by sulforhodamine B assay
HOP-62 = assay: Cytotoxicity against human HOP62 cells by sulforhodamine B assay
HOP-92 = assay: Cytotoxicity against human HOP92 cells by sulforhodamine B assay
NCI-H460 = assay: Cytotoxicity against human NCI-H460 cells by sulforhodamine B assay
KM12 = assay: Cytotoxicity against human KM12 cells by sulforhodamine B assay
SF-295 = assay: Cytotoxicity against human SF295 cells by sulforhodamine B assay
SF-539 = assay: Cytotoxicity against human SF539 cells by sulforhodamine B assay
SNB-75 = assay: Cytotoxicity against human SNB75 cells by sulforhodamine B assay
U-251 = assay: Cytotoxicity against human U251 cells by sulforhodamine B assay
M14 = assay: Cytotoxicity against human M14 cells by sulforhodamine B assay
UACC-257 = assay: Cytotoxicity against human UACC257 cells by sulforhodamine B assay
IGROV-1 = assay: Cytotoxicity against human IGROV1 cells by sulforhodamine B assay
OVCAR-3 = assay: Cytotoxicity against human OVCAR-3 cells by sulforhodamine B assay
OVCAR-5 = assay: Cytotoxicity against human OVCAR5 cells by sulforhodamine B assay
OVCAR-8 = assay: Cytotoxicity against human OVCAR8 cells by sulforhodamine B assay
CAKI-1 = assay: Cytotoxicity against human Caki1 cells by sulforhodamine B assay
SN12C = assay: Cytotoxicity against human SN12C cells by sulforhodamine B assay
TK-10 = assay: Cytotoxicity against human TK10 cells by sulforhodamine B assay
DU-145 = assay: Cytotoxicity against human DU145 cells by sulforhodamine B assay
NCI/ADR-RES = assay: Cytotoxicity against human NCI/ADR-RES cells by sulforhodamine B assay
MDA-MB-435 = assay: Cytotoxicity against human MDA-MB-435 cells by sulforhodamine B assay
HT-29 [1] = assay: Antitumor activity against human HT-29 cells assessed as upregulation of RASSF4 mRNA expression at 2 nM after 3 hrs relative to control
HT-29 [2] = assay: Antitumor activity against human HT-29 cells assessed as upregulation of RASSF4 mRNA expression at 10 nM after 3 hrs relative to control
HT-29 [3] = assay: Antitumor activity against human HT-29 cells assessed as upregulation of DDIT4 mRNA expression at 10 nM after 6 hrs relative to control
HT-29 [4] = assay: Antitumor activity against human HT-29 cells assessed as upregulation of DDIT4 mRNA expression at 2 nM after 12 hrs relative to control
HT-29 [5] = assay: Antitumor activity against human HT-29 cells assessed as down-regulation of RAB11B mRNA expression at 2 nM after 3 hrs relative to control
HT-29 [6] = assay: Antitumor activity against human HT-29 cells assessed as down-regulation of RAB11B mRNA expression at 10 nM after 3 hrs relative to control
HT-29 [7] = assay: Antitumor activity against human HT-29 cells assessed as down-regulation of RAB11B mRNA expression at 10 nM after 6 hrs relative to control
HT-29 [8] = assay: Antitumor activity against human HT-29 cells assessed as down-regulation of TAL1 mRNA expression at 2 nM after 3 hrs relative to control
HT-29 [9] = assay: Antitumor activity against human HT-29 cells assessed as down-regulation of TAL1 mRNA expression at 2 nM after 12 hrs relative to control
HT-29 [10] = assay: Antitumor activity against human HT-29 cells assessed as down-regulation of CDC25A mRNA expression at 2 nM after 3 hrs relative to control
HT-29 [11] = assay: Antitumor activity against human HT-29 cells assessed as down-regulation of CDC25A mRNA expression at 2 nM after 6 hrs relative to control
HT-29 [12] = assay: Antitumor activity against human HT-29 cells assessed as down-regulation of CDC25A mRNA expression at 2 nM after 12 hrs relative to control
HT-29 [13] = assay: Antitumor activity against human HT-29 cells assessed as down-regulation of CDC25A mRNA expression at 10 nM after 12 hrs relative to control
HT-29 [14] = assay: Antitumor activity against human HT-29 cells assessed as down-regulation of CCNE2 mRNA expression at 2 nM after 3 hrs relative to control
HT-29 [15] = assay: Antitumor activity against human HT-29 cells assessed as down-regulation of CCNE2 mRNA expression at 10 nM after 6 hrs relative to control
HT-29 [16] = assay: Antitumor activity against human HT-29 cells assessed as down-regulation of GTSE1 mRNA expression at 2 nM after 12 hrs relative to control
HT-29 [17] = assay: Antitumor activity against human HT-29 cells assessed as down-regulation of GTSE1 mRNA expression at 10 nM after 12 hrs relative to control
HT-29 [18] = assay: Antitumor activity against human HT-29 cells assessed as upregulation of KCNK10 mRNA expression at 10 nM after 3 hrs relative to control
HT-29 [19] = assay: Antitumor activity against human HT-29 cells assessed as upregulation of MGC4504 mRNA expression at 2 nM after 6 hrs relative to control
HT-29 [20] = assay: Antitumor activity against human HT-29 cells assessed as upregulation of MGC4504 mRNA expression at 2 nM after 12 hrs relative to control
U2OS [21] = assay: Cell cycle arrest in human U2OS cells assessed as accumulation at G1 phase at 5 nM after 24 hrs by FACS analysis (reference value: 49.8%)
U2OS [22] = assay: Cell cycle arrest in human U2OS cells assessed as accumulation at G1 phase at 50 nM after 24 hrs by FACS analysis (reference value: 49.8%)
U2OS [23] = assay: Cell cycle arrest in human U2OS cells assessed as accumulation at S phase at 5 nM after 24 hrs by FACS analysis (reference value: 37.3%)
U2OS [24] = assay: Cell cycle arrest in human U2OS cells assessed as accumulation at S phase at 5 nM after 48 hrs by FACS analysis (reference value: 37.3%)
U2OS [25] = assay: Cell cycle arrest in human U2OS cells assessed as accumulation at S phase at 50 nM after 48 hrs by FACS analysis (reference value: 37.3%)
U2OS [26] = assay: Cell cycle arrest in human U2OS cells assessed as accumulation at sub-G1 phase at 50 nM after 48 hrs by FACS analysis relative to control
U2OS [27] = assay: Induction of apoptosis in human U2OS cells assessed as caspase3 dependent cleavage of Ac-DEVD-pNA at 50 nM after 6-48 hrs by […] relative to control
[28] = read-out: LC50 (the source's name)

Compound `CC[C@H](C)[C@H]1C(=O)N2CCC[C@H]2C(=O)O[C@H](C(C)(C)C)C[C@@H](C)C[C@H](O)[C@H](C)C2=N[C@@H](/C=C(\C)C(=O)N[C@@H](Cc3ccc(OC)cc3)C(=O)N(C)[C@@H](C)C(=O)N1C)CS2` [APRATOXIN A] has a GI50 (K562) of 14.8 nM, a GI50 (A549) of 5.38 nM and a GI50 (HOP-62) of 7.68 nM. It also gave a GI50 (HOP-92) of 3.09 nM, a GI50 (NCI-H460) of 2.77 nM and a GI50 (KM12) of 3.52 nM. The GI50 (SF-295) was 1.26 nM, the CC50 (SF-295; [28]) was 70.3 nM and the GI50 (SF-539) was 0.503 nM. For the same compound, the CC50 (SF-539; [28]) was 69.4 nM, the GI50 (SNB-75) was 1.96 nM and the GI50 (U-251) was 1.56 nM. For the same compound, the GI50 (M14) was 2.09 nM, the GI50 (UACC-257) was 7.15 nM and the GI50 (IGROV-1) was 0.742 nM. The GI50 (OVCAR-3) was 16.9 nM, the GI50 (OVCAR-5) was > 100 nM and the GI50 (OVCAR-8) was 7.26 nM. It also gave a GI50 (CAKI-1) of 4.05 nM, a GI50 (SN12C) of 3.94 nM and a GI50 (TK-10) of 2.63 nM. The GI50 (DU-145) was 10.3 nM, the GI50 (NCI/ADR-RES) was 15.3 nM and the GI50 (MDA-MB-435) was 3.35 nM. For the same compound, the “fold change (FC)” value (HT-29 [1]) was 12.65, the “fold change (FC)” value (HT-29 [2]) was “<=2” and the “fold change (FC)” value (HT-29 [3]) was 16.18. For the same compound, the “fold change (FC)” value (HT-29 [4]) was 3.78, the “fold change (FC)” value (HT-29 [5]) was -3.68 and the “fold change (FC)” value (HT-29 [6]) was “<=2”. The “fold change (FC)” value (HT-29 [7]) was “<=2”, the “fold change (FC)” value (HT-29 [8]) was -2.52 and the “fold change (FC)” value (HT-29 [9]) was “<=2”. The “fold change (FC)” value (HT-29 [10]) was “<=2”, the “fold change (FC)” value (HT-29 [11]) was “<=2” and the “fold change (FC)” value (HT-29 [12]) was -2.2. The “fold change (FC)” value (HT-29 [13]) was -2.79, the “fold change (FC)” value (HT-29 [14]) was “<=2” and the “fold change (FC)” value (HT-29 [15]) was “<=2”. The “fold change (FC)” value (HT-29 [16]) was “<=2”, the “fold change (FC)” value (HT-29 [17]) was -2.35 and the “fold change (FC)” value (HT-29 [18]) was 10.01. For the same compound, the “fold change (FC)” value (HT-29 [19]) was 7.57, the “fold change (FC)” value (HT-29 [20]) was 5.19 and the inhibition at 0.005 µM (U2OS [21]) was 61.6%. It also gave an inhibition at 0.05 µM (U2OS [22]) of 68.3%, an inhibition at 0.005 µM (U2OS [23]) of 28.2% and an inhibition at 0.005 µM (U2OS [24]) of 5.5%. The inhibition at 0.05 µM (U2OS [25]) was 0.8%, the inhibition at 0.05 µM (U2OS [26]) was 42.7% and the “fold change (FC)” value (U2OS [27]) was 20.
